Data taken from paper PMC6437697 (Journal of Medicinal Chemistry, 2019).

Key:
Test in all cases: KINOMEscan
Format in all cases: binding
Conditions in all cases: read-out: % control activity remaining
[1] = molecular target: T1, ABL1(M351T)-phosphorylated (Homo sapiens, UniProt P00519, M351T)
T1 construct: purchased Eurofins DiscoverX KINOMEscan

CDK4-cyclinD1 = molecular target: T2, CDK4-cyclinD1 (Homo sapiens, UniProt P11802)
T2 construct: purchased Eurofins DiscoverX KINOMEscan

DCAMKL1 = molecular target: T3, DCAMKL1 (Homo sapiens, UniProt O15075)
T3 construct: purchased Eurofins DiscoverX KINOMEscan
T3 sequence (O15075 1-740): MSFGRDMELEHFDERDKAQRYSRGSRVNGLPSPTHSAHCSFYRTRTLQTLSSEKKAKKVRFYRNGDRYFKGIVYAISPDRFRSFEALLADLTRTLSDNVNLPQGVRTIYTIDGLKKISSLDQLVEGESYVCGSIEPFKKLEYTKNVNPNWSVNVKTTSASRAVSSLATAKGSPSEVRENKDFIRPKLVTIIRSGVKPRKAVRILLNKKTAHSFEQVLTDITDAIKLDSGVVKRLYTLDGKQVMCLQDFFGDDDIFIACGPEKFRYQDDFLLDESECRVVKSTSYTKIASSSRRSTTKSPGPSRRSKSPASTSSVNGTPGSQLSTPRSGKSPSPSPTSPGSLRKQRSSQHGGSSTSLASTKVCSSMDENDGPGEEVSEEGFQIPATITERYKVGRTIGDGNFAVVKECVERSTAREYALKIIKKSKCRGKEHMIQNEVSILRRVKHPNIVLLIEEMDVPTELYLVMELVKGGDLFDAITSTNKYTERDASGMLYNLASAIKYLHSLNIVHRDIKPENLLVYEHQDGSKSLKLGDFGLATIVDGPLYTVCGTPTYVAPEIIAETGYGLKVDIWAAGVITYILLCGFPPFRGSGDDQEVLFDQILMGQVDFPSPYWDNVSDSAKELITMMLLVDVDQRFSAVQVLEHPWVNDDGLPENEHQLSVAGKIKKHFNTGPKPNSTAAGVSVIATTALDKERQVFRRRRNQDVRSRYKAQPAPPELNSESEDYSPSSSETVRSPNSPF

EPHA4 = molecular target: T4, EPHA4 (Homo sapiens, UniProt P54764)
T4 construct: purchased Eurofins DiscoverX KINOMEscan
T4 sequence (P54764 20-986): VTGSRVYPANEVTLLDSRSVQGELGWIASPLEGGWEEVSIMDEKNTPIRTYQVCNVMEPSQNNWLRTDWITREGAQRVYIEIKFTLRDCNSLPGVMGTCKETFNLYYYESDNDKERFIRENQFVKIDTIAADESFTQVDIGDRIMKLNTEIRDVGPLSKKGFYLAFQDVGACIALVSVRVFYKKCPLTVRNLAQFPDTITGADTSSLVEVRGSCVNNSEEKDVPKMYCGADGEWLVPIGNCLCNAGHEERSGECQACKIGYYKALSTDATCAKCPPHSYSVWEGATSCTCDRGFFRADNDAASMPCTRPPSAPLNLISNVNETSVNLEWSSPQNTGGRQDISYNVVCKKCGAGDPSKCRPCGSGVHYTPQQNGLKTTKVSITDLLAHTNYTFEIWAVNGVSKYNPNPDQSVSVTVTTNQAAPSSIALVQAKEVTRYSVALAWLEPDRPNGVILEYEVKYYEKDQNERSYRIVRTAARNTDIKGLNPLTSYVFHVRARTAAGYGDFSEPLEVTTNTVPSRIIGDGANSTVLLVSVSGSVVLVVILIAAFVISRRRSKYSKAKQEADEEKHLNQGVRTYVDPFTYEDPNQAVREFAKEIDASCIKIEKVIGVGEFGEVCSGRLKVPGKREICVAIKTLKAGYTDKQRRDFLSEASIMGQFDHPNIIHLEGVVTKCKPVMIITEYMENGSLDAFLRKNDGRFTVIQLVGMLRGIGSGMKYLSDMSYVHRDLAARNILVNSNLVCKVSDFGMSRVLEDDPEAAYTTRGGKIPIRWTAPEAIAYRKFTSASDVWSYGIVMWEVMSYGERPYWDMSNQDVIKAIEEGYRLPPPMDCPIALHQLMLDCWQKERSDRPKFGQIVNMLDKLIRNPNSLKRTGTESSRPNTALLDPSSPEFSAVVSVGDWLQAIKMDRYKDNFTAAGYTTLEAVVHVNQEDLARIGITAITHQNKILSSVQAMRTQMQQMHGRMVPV

KIT(D816H) = molecular target: T5, KIT(D816H) (Homo sapiens, UniProt P10721, D816H)
T5 construct: purchased Eurofins DiscoverX KINOMEscan
T5 sequence (P10721 26-976 D816H): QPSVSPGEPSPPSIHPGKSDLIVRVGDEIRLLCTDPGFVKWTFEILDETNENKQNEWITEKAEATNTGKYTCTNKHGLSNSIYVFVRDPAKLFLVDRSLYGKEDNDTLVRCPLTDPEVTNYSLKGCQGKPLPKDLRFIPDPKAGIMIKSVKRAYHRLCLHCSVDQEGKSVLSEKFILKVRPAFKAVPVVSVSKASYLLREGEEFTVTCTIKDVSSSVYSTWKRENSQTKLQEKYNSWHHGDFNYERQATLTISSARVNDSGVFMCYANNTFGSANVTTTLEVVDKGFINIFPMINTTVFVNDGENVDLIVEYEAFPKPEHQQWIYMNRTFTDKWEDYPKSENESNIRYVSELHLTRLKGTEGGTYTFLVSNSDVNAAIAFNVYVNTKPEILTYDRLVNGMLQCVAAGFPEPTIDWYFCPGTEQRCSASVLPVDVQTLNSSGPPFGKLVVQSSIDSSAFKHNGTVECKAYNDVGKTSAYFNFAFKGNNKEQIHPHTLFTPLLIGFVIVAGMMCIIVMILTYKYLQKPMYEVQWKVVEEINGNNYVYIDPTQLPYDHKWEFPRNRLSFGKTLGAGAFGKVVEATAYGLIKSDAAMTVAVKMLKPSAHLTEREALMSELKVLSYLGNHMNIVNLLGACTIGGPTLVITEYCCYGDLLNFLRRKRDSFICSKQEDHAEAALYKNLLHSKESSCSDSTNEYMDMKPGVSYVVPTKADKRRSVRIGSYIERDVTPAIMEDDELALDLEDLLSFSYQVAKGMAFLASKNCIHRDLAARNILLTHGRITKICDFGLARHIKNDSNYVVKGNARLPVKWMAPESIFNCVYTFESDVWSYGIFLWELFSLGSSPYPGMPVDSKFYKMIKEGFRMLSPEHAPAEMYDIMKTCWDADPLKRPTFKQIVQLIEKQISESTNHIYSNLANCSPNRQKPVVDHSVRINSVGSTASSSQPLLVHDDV

MRCKB = molecular target: T6, MRCKB (Homo sapiens, UniProt Q9Y5S2)
T6 construct: purchased Eurofins DiscoverX KINOMEscan
T6 sequence (Q9Y5S2 whole entry): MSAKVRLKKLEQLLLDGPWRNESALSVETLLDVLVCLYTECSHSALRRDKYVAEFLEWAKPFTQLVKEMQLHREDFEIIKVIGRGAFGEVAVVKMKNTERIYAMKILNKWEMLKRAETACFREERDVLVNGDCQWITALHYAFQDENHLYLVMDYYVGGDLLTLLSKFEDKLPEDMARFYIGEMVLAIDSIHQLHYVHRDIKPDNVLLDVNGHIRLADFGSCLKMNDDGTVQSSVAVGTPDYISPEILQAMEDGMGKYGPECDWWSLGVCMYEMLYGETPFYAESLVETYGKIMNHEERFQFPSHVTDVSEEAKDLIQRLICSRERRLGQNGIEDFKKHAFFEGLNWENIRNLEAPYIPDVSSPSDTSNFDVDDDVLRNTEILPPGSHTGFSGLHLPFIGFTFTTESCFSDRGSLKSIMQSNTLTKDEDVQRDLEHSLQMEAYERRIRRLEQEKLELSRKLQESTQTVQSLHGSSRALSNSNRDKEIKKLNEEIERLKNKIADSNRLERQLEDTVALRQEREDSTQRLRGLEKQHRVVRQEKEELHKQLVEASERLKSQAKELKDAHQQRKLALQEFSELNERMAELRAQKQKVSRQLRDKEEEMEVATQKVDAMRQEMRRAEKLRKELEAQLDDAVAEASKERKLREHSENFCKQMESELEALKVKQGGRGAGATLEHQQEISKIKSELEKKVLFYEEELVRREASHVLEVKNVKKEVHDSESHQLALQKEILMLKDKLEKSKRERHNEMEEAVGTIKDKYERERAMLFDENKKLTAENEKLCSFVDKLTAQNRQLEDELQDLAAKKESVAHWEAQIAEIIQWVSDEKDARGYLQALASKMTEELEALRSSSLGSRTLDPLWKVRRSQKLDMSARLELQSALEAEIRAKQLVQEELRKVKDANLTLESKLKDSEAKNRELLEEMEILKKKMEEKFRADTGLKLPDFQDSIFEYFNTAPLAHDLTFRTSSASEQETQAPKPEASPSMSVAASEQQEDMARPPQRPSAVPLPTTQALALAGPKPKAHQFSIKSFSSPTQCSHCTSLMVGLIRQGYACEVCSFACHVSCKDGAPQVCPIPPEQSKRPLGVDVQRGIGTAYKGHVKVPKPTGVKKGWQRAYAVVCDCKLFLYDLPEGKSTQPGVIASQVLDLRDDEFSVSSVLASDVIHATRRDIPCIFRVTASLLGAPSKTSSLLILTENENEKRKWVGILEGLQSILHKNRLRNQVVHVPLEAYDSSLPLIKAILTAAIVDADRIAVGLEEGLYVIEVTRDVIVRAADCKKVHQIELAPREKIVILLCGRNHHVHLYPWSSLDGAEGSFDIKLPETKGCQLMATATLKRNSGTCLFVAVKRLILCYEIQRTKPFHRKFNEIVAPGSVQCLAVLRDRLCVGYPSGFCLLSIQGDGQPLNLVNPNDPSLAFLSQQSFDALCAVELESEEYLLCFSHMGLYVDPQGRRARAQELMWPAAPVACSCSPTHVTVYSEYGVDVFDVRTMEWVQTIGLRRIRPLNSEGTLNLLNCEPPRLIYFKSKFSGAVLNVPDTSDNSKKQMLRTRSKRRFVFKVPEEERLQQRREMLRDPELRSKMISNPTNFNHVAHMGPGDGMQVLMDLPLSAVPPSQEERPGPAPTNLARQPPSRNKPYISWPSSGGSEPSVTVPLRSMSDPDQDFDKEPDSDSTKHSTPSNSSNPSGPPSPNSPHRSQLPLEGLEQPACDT

NEK1 = molecular target: T7, NEK1 (Homo sapiens, UniProt Q96PY6)
T7 construct: purchased Eurofins DiscoverX KINOMEscan
T7 sequence (Q96PY6 1-1258): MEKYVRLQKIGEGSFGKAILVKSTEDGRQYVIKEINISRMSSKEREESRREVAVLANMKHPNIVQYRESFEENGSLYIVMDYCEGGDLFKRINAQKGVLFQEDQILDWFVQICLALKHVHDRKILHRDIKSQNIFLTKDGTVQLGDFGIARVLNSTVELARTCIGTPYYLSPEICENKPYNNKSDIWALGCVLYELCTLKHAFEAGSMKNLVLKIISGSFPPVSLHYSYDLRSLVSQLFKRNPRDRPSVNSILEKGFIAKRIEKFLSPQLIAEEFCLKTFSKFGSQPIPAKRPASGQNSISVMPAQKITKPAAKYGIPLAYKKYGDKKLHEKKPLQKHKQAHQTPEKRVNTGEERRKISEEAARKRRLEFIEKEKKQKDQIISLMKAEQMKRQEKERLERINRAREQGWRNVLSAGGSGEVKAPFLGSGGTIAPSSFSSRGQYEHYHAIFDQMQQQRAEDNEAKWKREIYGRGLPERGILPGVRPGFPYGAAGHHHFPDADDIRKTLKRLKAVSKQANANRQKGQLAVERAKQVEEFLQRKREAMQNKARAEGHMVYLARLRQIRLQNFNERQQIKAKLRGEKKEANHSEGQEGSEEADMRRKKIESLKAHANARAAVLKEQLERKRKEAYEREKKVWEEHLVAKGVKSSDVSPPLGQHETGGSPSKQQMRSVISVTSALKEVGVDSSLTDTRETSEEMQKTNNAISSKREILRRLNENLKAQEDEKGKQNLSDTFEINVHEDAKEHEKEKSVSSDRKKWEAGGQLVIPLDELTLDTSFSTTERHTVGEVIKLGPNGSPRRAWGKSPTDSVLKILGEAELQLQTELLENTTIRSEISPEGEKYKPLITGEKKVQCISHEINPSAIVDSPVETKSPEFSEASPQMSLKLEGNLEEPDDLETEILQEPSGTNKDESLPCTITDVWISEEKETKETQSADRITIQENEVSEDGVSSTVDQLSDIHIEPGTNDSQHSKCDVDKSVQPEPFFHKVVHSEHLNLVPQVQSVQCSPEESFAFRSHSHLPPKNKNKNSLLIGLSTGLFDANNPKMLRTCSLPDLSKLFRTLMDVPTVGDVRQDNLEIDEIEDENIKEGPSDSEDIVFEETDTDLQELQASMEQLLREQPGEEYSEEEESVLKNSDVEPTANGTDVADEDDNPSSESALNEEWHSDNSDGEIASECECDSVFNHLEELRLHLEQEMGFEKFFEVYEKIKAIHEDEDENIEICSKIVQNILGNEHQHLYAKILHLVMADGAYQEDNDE

T2 sequence (P11802 whole entry): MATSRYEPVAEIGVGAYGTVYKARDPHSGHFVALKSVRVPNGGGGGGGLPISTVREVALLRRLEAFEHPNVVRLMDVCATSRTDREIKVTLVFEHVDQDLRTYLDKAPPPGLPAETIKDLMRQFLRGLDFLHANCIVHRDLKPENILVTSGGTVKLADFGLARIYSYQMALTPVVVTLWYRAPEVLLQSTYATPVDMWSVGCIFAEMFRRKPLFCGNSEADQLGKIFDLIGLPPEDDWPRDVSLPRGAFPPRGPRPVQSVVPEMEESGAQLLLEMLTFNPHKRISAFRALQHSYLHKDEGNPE
T2 sequence (P24385 whole entry partner): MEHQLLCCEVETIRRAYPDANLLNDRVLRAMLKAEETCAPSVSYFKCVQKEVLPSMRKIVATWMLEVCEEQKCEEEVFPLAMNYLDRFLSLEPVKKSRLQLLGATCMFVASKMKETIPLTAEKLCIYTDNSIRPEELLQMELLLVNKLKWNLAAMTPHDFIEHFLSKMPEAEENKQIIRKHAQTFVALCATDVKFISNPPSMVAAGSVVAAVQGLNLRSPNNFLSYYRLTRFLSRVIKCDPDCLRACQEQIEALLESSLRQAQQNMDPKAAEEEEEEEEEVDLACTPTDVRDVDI

Clc1cc(NCC2CC2)c2ncc(-c3ccc4[nH]ncc4c3)n2n1 [compound 2, 6-Chloro-N-(cyclopropylmethyl)-3-(1H-indazol-5-yl)imidazo[1,2-b]pyridazin-8-amine]
remaining binding at 1 µM [1]: 91%
remaining binding at 1 µM (CDK4-cyclinD1): 88%
remaining binding at 1 µM (DCAMKL1): 99%
remaining binding at 1 µM (EPHA4): 84%
remaining binding at 1 µM (KIT(D816H)): 100%
remaining binding at 1 µM (MRCKB): 64%
remaining binding at 1 µM (NEK1): 84%

O=C(CN1CCOCC1)N[C@H]1CC[C@H](Nc2cc(Cl)nn3c(-c4ccc5[nH]ncc5c4)cnc23)CC1 [compound 26]
remaining binding at 1 µM [1]: 57%
remaining binding at 1 µM (CDK4-cyclinD1): 93%
remaining binding at 1 µM (DCAMKL1): 100%
remaining binding at 1 µM (EPHA4): 99%
remaining binding at 1 µM (KIT(D816H)): 63%
remaining binding at 1 µM (MRCKB): 97%
remaining binding at 1 µM (NEK1): 92%

CN1CCC(CNc2cc(Cl)nn3c(-c4cc5nc(Nc6ccccc6)[nH]c5cc4F)cnc23)CC1 [compound 31, 6-Chloro-3-(6-fluoro-2-(phenylamino)-1H-benzo[d]imidazol-5-yl)-N-((1-methylpiperidin-4-yl)methyl)imidazo[1,2-b]pyridazin-8-amine]
remaining binding at 1 µM [1]: 78%
remaining binding at 1 µM (CDK4-cyclinD1): 87%
remaining binding at 1 µM (DCAMKL1): 81%
remaining binding at 1 µM (EPHA4): 100%
remaining binding at 1 µM (KIT(D816H)): 96%
remaining binding at 1 µM (MRCKB): 100%
remaining binding at 1 µM (NEK1): 96%
